Experimental data from PMC6711126, “Novel 2-phenoxypyrido[3,2-b]pyrazin-3(4H)-one derivatives as potent and selective aldose reductase inhibitors with antioxidant activity” (Journal of Enzyme Inhibition and Medicinal Chemistry, 2019).
“And” between values parts separate entries of the source, which are not always exact repeats. Equal entries are not always repeated.

Tests used:
[1] = biological target: T1, AKR1A1 isolated from rat kidneys (Rattus norvegicus, UniProt P51635); test: AKR1A1 (aldehyde reductase) inhibition, NADPH oxidation with sodium D-glucuronate as substrate; assay type: biochemical; conditions: rat kidney enzyme, pH 7.2, 37 °C
T1 construct: aldehyde reductase (AKR1A1) isolated from rat kidneys; from tissue; host or cells: rat kidneys
T1 sequence (P51635 1-325): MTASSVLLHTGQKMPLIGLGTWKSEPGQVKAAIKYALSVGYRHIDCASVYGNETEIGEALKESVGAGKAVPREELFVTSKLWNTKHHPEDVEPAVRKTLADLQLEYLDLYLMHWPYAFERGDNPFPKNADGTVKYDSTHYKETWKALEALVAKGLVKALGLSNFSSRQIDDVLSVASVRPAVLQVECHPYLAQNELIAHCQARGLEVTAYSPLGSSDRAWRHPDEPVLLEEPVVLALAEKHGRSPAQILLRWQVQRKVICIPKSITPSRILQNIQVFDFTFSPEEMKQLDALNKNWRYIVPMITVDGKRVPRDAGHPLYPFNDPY
Experimental: (§1) All new synthetic compounds 4a–o were tested for their potential inhibitory activity of AKR1B1 isolated from rat lenses. Besides, the inhibitory activity of aldehyde reductase (AKR1A1) isolated from rat kidneys was also investigated to evaluate the selectivity for AKR1B1. The enzyme AKR1A1 is closely related to AKR1B1, and plays an important role in physiological detoxification. […] Additionally, the antioxidant activity was assessed by using the model reaction with the stable free radical of 2,2-diphenyl-1-picrylhydrazyl (DPPH) according to the modified method, which was first employed by Blois[23].
The AKR1A1 inhibition activity was performed in a reaction mixture containing 0.25 mL NADPH (0.12 mM), 0.1 mL enzyme extract, 0.25 mL sodium phosphate buffer (pH = 7.2, 0.1 M), 0.15 mL deionized water, and 0.25 mL sodium D-glucuronate (20 mM) as substrate in a final volume of 1 mL. Before adding to sodium D-glucuronate, the reaction mixture was incubated at 37 °C for 10 min, and then the substrate was added to start the reaction, which was monitored for 4 min.
(§2) The inhibitory activity of the newly synthesized compounds against AKR1B1 and AKR1A1 was assayed by adding 5 μL of the inhibitor solution to the reaction mixture described above. All compounds were dissolved in dimethyl sulfoxide (DMSO) and diluted with deionized H2O. To correct for the nonenzymatic oxidation of NADPH, the rate of NADPH oxidation in the presence of all the reaction mixture components except the substrate was subtracted from each experimental rate. The inhibitory effect of the synthetic compounds was routinely estimated at 10^-4 M (the concentration is referenced to that of the compound in the reaction mixture).

[2] = biological target: T2, AKR1B1 isolated from rat lenses (Rattus norvegicus, UniProt P07943); test: AKR1B1 (aldose reductase) inhibition, NADPH oxidation with D,L-glyceraldehyde as substrate; assay type: biochemical; conditions: rat lens enzyme, pH 6.2, 30 °C
T2 construct: AKR1B1 isolated from rat lenses; from tissue; host or cells: rat lenses
Experimental: as §1, with “Besides,” for “All new synthetic compounds 4a–o were tested for their potential inhibitory activity of AKR1B1 isolated from rat lenses. Besides,”
The AKR1B1 inhibition activity was performed in a reaction mixture containing 0.25 mL NADPH (0.10 mM), 0.25 mL sodium phosphate buffer (pH = 6.2, 0.1 M), 0.1 mL enzyme extract, 0.15 mL deionized water, and 0.25 mL D,L-glyceraldehyde (10 mM) as substrate in a final volume of 1 mL. Before adding to D,L-glyceraldehyde, the reaction mixture was incubated at 30 °C for 10 min, and then the substrate was added to start the reaction, which was monitored for 4 min.
as §2

[3] = DPPH radical scavenging assay; conditions: methanol, 517 nm; for DPPH/sca% 50 μM: compound 50 μM; for DPPH/sca% 100 μM: compound 100 μM; for DPPH/sca% 10 μM: compound 10 μM
Experimental: as §1
The antioxidant activity of all synthesised compounds was determined with the DPPH model reaction and […] (Trolox) was employed as a positive control (Table 2).
To investigate the antiradical activity of target compounds in a homogeneous system, a method based on the scavenging of the stable free radical DPPH was employed. A 100 μL of methanolic solution of various compounds with different concentrations was added to 1 mL DPPH methanolic solution (2.5 × 10^-5 g/mL) and 1.9 ml methanol solution to give final concentrations of 0.1, 0.05, 0.01 mM for the tested compounds, respectively. After vortexing thoroughly and leaving for 30 min at room temperature, the optical density was measured at λ 517 nm using the Shimadzu UV-1800 spectrophotometer. The tested compounds and the reference (Trolox) were dissolved in methanol, and after 240 min (steady state), the percentage of DPPH radical scavenging was determined by the equation as shown below. The experiments were performed in triplicate.

| SMILES | melting point [°C] | IC50 [1] [µM] | IC50 [2] [µM] | DPPH/sca% 50 μM [3] | DPPH/sca% 100 μM [3] | DPPH/sca% 10 μM [3] |
| --- | --- | --- | --- | --- | --- | --- |
| O=C(O)Cn1c(=O)c(Oc2ccc(O)c(O)c2)nc2cccnc21 [4h, 2-(2-(3,4-dihydroxyphenoxy)-3-oxopyrido[3,2-b]pyrazin-4(3H)-yl)acetic acid] | 231 to 236 | 16.9 ± 0.692 | 0.305 ± 0.022 | 44.1 ± 2.3% | 74.6 ± 1.4% | – |
| O=C(O)Cn1c(=O)c(Oc2cc(O)cc(O)c2)nc2cc(Cl)cnc21 [4k, 2-(7-chloro-2-(3,5-dihydroxyphenoxy)-3-oxopyrido[3,2-b]pyrazin-4(3H)-yl)acetic acid] | 232 to 236 | 18.4 ± 1.34 | 0.023 ± 0.003 | 76.4 ± 0.9% | 94.8 ± 1.1% | 49.1 ± 2.4% |
| COc1cc(O)cc(Oc2nc3cccnc3n(CC(=O)O)c2=O)c1 [4i, 2-(2-(3-hydroxy-5-methoxyphenoxy)-3-oxopyrido[3,2-b]pyrazin-4(3H)-yl)acetic acid] | 229 to 232 | 15.1 ± 0.924 | 2.85 ± 0.031 | 45.2 ± 1.8% | 78.4 ± 0.7% | – |
| COc1ccc(Oc2nc3cccnc3n(CC(=O)O)c2=O)cc1 [4b, 2-(2-(4-methoxyphenoxy)-3-oxopyrido[3,2-b]pyrazin-4(3H)-yl)acetic acid] | 234 to 242 | 19.8 ± 1.32 | 2.68 ± 0.199 | – | 18.9 ± 0.8% | – |
| COc1ccc(Oc2nc3cccnc3n(CC(=O)O)c2=O)cc1OC [4c, 2-(2-(3,4-dimethoxyphenoxy)-3-oxopyrido[3,2-b]pyrazin-4(3H)-yl)acetic acid] | 241 to 251 | 17.6 ± 1.02 | 5.68 ± 0.608 | – | 21.2 ± 1.5% | – |
| COc1cc(OC)cc(Oc2nc3cccnc3n(CC(=O)O)c2=O)c1 [4d, 2-(2-(3,5-dimethoxyphenoxy)-3-oxopyrido[3,2-b]pyrazin-4(3H)-yl)acetic acid] | 241 to 247 | 21.5 ± 1.81 | 4.3 ± 0.288 | – | 25.9 ± 1.3% | – |
| COc1ccc(Oc2nc3cccnc3n(CC(=O)O)c2=O)cc1O [4g, 2-(2-(3-hydroxy-4-methoxyphenoxy)-3-oxopyrido[3,2-b]pyrazin-4(3H)-yl)acetic acid] | 232 to 236 | 19.3 ± 1.81 | 2.5 ± 0.203 | 21.5 ± 1.2% | 54.8 ± 1.6% | – |
| Cc1c(C)c2c(c(C)c1O)CCC(C)(C(=O)O)O2 (centres unmarked) [Trolox, […], reference compound] | – | – | – | 89.8 ± 1.0% | 96.7 ± 0.8% | 85.9 ± 0.6% |
| COc1cc(Oc2nc3cccnc3n(CC(=O)O)c2=O)cc(OC)c1OC [4e, 2-(3-oxo-2-(3,4,5-trimethoxyphenoxy)pyrido[3,2-b]pyrazin-4(3H)-yl)acetic acid] | 235 to 243 | 20.9 ± 1.21 | 7.57 ± 0.431 | – | 17.8 ± 0.9% | – |
| O=C(O)Cn1c(=O)c(Oc2cc(O)c(O)c(O)c2)nc2cccnc21 [4o, 2-(3-oxo-2-(3,4,5-trihydroxyphenoxy)pyrido[3,2-b]pyrazin-4(3H)-yl)acetic acid] | 241 to 246 | 21.7 ± 1.47 | 0.859 ± 0.058 | 65.2 ± 1.9% | 88.5 ± 1.4% | 23.4 ± 2.0% |
| O=C(O)Cn1c(=O)c(Oc2ccc(O)cc2)nc2cccnc21 [4f, 2-(2-(4-hydroxyphenoxy)-3-oxopyrido[3,2-b]pyrazin-4(3H)-yl)acetic acid] | 231 to 239 | 15.9 ± 0.781 | 0.121 ± 0.01 | – | 37.7 ± 1.0% | – |
| COc1c(O)cc(Oc2nc3cccnc3n(CC(=O)O)c2=O)cc1O [4n, 2-(2-(3,5-dihydroxy-4-methoxyphenoxy)-3-oxopyrido[3,2-b]pyrazin-4(3H)-yl)acetic acid] | 235 to 241 | 25.8 ± 1.65 | 2.36 ± 0.184 | 40.8 ± 1.6% | 65.7 ± 0.9% | – |
| O=C(O)Cn1c(=O)c(Oc2cc(O)cc(O)c2)nc2cc(Br)cnc21 [4l, 2-(7-bromo-2-(3,5-dihydroxyphenoxy)-3-oxopyrido[3,2-b]pyrazin-4(3H)-yl)acetic acid] | 233 to 235 | 19.8 ± 1.41 | 0.056 ± 0.005 | 80.6% and 80.6 ± 2.0% | 95.3% and 95.3 ± 1.2% | 46.8% and 46.8 ± 1.5% |
| CC(/C=C1\SC(=S)N(CC(=O)O)C1=O)=C\c1ccccc1 [Epalrestat, reference compound] | – | 55.7 ± 3.29 | – | – | – | – |
| O=C(O)Cn1c(=O)c(Oc2cc(O)cc(O)c2)nc2cccnc21 [4j, 2-(2-(3,5-dihydroxyphenoxy)-3-oxopyrido[3,2-b]pyrazin-4(3H)-yl)acetic acid] | 231 to 237 | 20.8 ± 1.5 | 0.087 ± 0.007 | 77.2 ± 1.5% | 95.0 ± 0.9% | 45.3 ± 1.9% |
| COc1cc(Oc2nc3cccnc3n(CC(=O)O)c2=O)cc(O)c1OC [4m, 2-(2-(3-hydroxy-4,5-dimethoxyphenoxy)-3-oxopyrido[3,2-b]pyrazin-4(3H)-yl)acetic acid] | 237 to 244 | 31.6 ± 3.06 | 4.53 ± 0.258 | 35.9 ± 1.1% | 56.9 ± 1.8% | – |
| O=C(O)Cn1c(=O)c(Oc2ccccc2)nc2cccnc21 [4a, 2-(3-oxo-2-phenoxypyrido[3,2-b]pyrazin-4(3H)-yl)acetic acid] | 239 to 244 | 26.9 ± 1.45 | 8.57 ± 0.523 | – | 6.9 ± 1.2% | – |
